Results published in BindingDB's records for doi:10.1016/0960-894X(95)00583-F (1996).

assay: Compound was evaluated for binding affinity against [3H]- Cl-DPDPE labeled Opioid receptor delta 1 in guinea-pig brain homogenate.

Row | SMILES | Ki
1 | O=C(/C=C/c1ccc(Cl)cc1)N[C@@H]1CC[C@@]2(O)[C@H]3Cc4ccc(O)c5c4C2(CCN3CC2CC2)[C@H]1O5 [1N-[4-cyclopropylmethyl-10,17-dihydroxy-(5R,13R,14R,17S)-12-oxa-4-azapentacyclo[9.6.1.01,13.05,17.07,18]octadeca-7(18),8,10-trien-14-yl]-3-(4-chlorophenyl)-(E)-2-propenamide] | 5 nM
2 | Cc1ccc(/C=C/C(=O)N[C@@H]2CC[C@@]3(O)[C@H]4Cc5ccc(O)c6c5C3(CCN4CC3CC3)[C@H]2O6)cc1 [1N-[4-cyclopropylmethyl-10,17-dihydroxy-(5R,13R,14R,17S)-12-oxa-4-azapentacyclo[9.6.1.01,13.05,17.07,18]octadeca-7(18),8,10-trien-14-yl]-3-(4-methylphenyl)-(E)-2-propenamide] | 9.6 nM
3 | O=C(/C=C/c1ccc([N+](=O)[O-])cc1)N[C@@H]1CC[C@@]2(O)[C@H]3Cc4ccc(O)c5c4C2(CCN3CC2CC2)[C@H]1O5 [1N-[4-cyclopropylmethyl-10,17-dihydroxy-(5R,13R,14R,17S)-12-oxa-4-azapentacyclo[9.6.1.01,13.05,17.07,18]octadeca-7(18),8,10-trien-14-yl]-3-(4-nitrophenyl)-(E)-2-propenamide] | 5.1 nM
4 | O=C(/C=C/c1ccccc1)N[C@@H]1CC[C@@]2(O)[C@H]3Cc4ccc(O)c5c4[C@@]2(CCN3CC2CC2)[C@H]1O5 [17-Cyclopropylmethyl-3,14beta-dihydroxy-4,5alpha-epoxy-6beta-(cinnamoylamino)morphinan] | 3.1 nM
5 | COC(=O)/C=C/C(=O)N[C@@H]1CC[C@@]2(O)[C@H]3Cc4ccc(O)c5c4[C@@]2(CCN3CC2CC2)[C@H]1O5 [Beta-Funeltrexamine] | 22 nM
